Common to all, as to experiment: cells
Common to all, as to set-up: species or system NCI-60 human tumour cell lines; NCI-60 one-dose screen at 10 uM, percent growth inhibition versus untreated control cells

The test system of test [1] is NCI-H460. The conditions noted are these: Homo sapiens, NCI-H460, growth inhibition, one dose.
Test [2] has as its system SW-620. The note with it: Homo sapiens, SW-620, growth inhibition, one dose.
Test [3] has as its system MALME-3M. The conditions noted are these: Homo sapiens, Malme-3M, growth inhibition, one dose.
Test [4] has as its system NCI-H322M. The conditions noted are these: Homo sapiens, NCI-H322M, growth inhibition, one dose.
The subject of test [5] is A549/ATCC. The note with it: Homo sapiens, A549, growth inhibition, one dose.
Test [6] concerns MDA-MB-468. The conditions noted are these: Homo sapiens, MDA-MB-468, growth inhibition, one dose.
Test [7] has as its system EKVX. The conditions noted are these: Homo sapiens, EKVX, growth inhibition, one dose.
Test [8] deals with SF-295. The note with it: Homo sapiens, SF-295, growth inhibition, one dose.
Test [9] deals with COLO 205. The conditions noted are these: Homo sapiens, COLO 205, growth inhibition, one dose.
Test [10] concerns NCI-H23. The conditions noted are these: Homo sapiens, NCI-H23, growth inhibition, one dose.
For test [11], the system named is RXF 393. The note with it: Homo sapiens, RXF 393, growth inhibition, one dose.
For test [12], the system named is TK-10. The note with it: Homo sapiens, TK-10, growth inhibition, one dose.
The test system of test [13] is HT29. The conditions noted are these: Homo sapiens, HT-29, growth inhibition, one dose.
In test [14] the test system is SK-OV-3. The conditions noted are these: Homo sapiens, SK-OV-3, growth inhibition, one dose.
In test [15] the test system is BT-549. The note with it: Homo sapiens, BT-549, growth inhibition, one dose.
[16] abbreviates: read-out: Growth% inhibition / 5h.
Setting [17] is: read-out: Growth% inhibition / 5e.
Setting [18] is: read-out: Growth% inhibition / 5b.
Setting [19] is: read-out: Growth% inhibition / 5a.

Structures are written as SMILES. Read-outs that look alike come from different tables or passages of the source.

As to `C/C(=N\NC(=O)/C=C/C=C/c1ccc2c(c1)OCO2)c1ccc(Br)cc1` [5h, (2E,4E)-5-(Benzo[d][1,3]dioxol-5-yl)-N′-((E)-1-(4-bromophenyl)ethylidene)penta-2,4-dienehydrazide], the inhibition at 10 µM in test [1] (setting [16]) is 60.4%; in [2] (setting [16]), 25.4%; in test [3] (setting [16]), 28.7%; in test [4] (setting [16]) it was 36.5%; in [5] (setting [16]), 12.5%; in test [6] (setting [16]) it was 29.3%. Also, the inhibition at 10 µM in test [7] (setting [16]) came out at 25%.

As to `CCN(CC)c1ccc(/C=N/NC(=O)/C=C/C=C/c2ccc3c(c2)OCO3)c(O)c1` [5e, (2E,4E)-5-(Benzo[d][1,3]dioxol-5-yl)-N′-((E)-4-(diethylamino)-2-hydroxybenzylidene)penta-2,4-dienehydrazide], the inhibition at 10 µM in test [1] (setting [17]) turned out to be 80.2%; in [8] (setting [17]) it was 58.3%; in test [9] (setting [17]), 60.1%; in test [2] (setting [17]), 67.7%; in [3] (setting [17]) it was 43.5%; in test [10] (setting [17]), 50.3%. Besides, the inhibition at 10 µM in test [11] (setting [17]) is 27.4%; in [4] (setting [17]) it was 66.8%; in test [5] (setting [17]), 46.7%; in test [12] (setting [17]) it was 62.2%; in test [13] (setting [17]), 32.2%; in test [14] (setting [17]), 60.5%. Moreover, the inhibition at 10 µM came to 86.6% in test [6] (setting [17]), 48.2% in test [15] (setting [17]) and 47.8% in [7] (setting [17]).

For the molecule `O=C(/C=C/C=C/c1ccc2c(c1)OCO2)N/N=C/c1ccc(O)cc1O` [5b, (2E,4E)-5-(Benzo[d][1,3]dioxol-5-yl)-N′-((E)-2,4-dihydroxybenzylidene)penta-2,4-dienehydrazide], the inhibition at 10 µM is 86% in test [1] (setting [18]); 86.2% in test [8] (setting [18]); 86% in test [9] (setting [18]); 73.5% in test [2] (setting [18]); 59.7% in test [3] (setting [18]); 70% in test [10] (setting [18]). For the same molecule, the inhibition at 10 µM amounted to 42.1% in [11] (setting [18]); 82.2% in test [4] (setting [18]); 63.9% in test [5] (setting [18]); 69% in [12] (setting [18]); 51.9% in [13] (setting [18]); 73% in test [14] (setting [18]). Besides, the inhibition at 10 µM came to 72.7% in test [15] (setting [18]) and 79.8% in test [7] (setting [18]).

Take `O=C(/C=C/C=C/c1ccc2c(c1)OCO2)NN=Cc1ccc(O)cc1` [5a, (2E,4E)-5-(Benzo[d][1,3]dioxol-5-yl)-N′-((E,Z)-4-hydroxybenzylidene)penta-2,4-dienehydrazide]: the inhibition at 10 µM in test [2] (setting [19]) came out at 19.8%; in [4] (setting [19]) it was 18.5%; in test [15] (setting [19]) it was 21.5%.
